One compound from patent US20060111409A1, “Medicament for treatment of diabetes” (priority 2002, published 2006) can be followed below.

SMILES strings stand for the structures.

The melting point is the temperature, or range, at which the solid turns liquid.

Regarding `CC(=O)Oc1ccccc1C(=O)Nc1cc(Cl)cc(Cl)c1`, the melting point fell in the range of 218 to 219 °C.
